Experimental data: patent publication US20240175062A1, “LIPOXYGENASE-BASED RECOMBINANT MICROORGANISMS, AND METHOD FORPREPARING HYDROXY FATTY ACIDS AND SECONDARY FATTY ALCOHOLS USING SAME” (EWHA UNIVERSITY - INDUSTRY COLLABORATION FOUNDATION, priority 2021, published 2024)
Read-outs that look alike come from different tables or passages of the source.

Columns and labels:
[1] = molecular target: Enhygromyxa salina-derived lipoxygenase (EsLOX) (Enhygromyxa salina, UniProt A0A0C2CV93); experiment: Enzymatic activity of purified EsLOX for long-chain unsaturated fatty acids (UV-vis spectrophotometer, 234 nm); type: biochemical; conditions: substrate of purified EsLOX, 50 mM EPPS (pH 8.5) buffer
Description: The culture medium was centrifuged at 13,000×g at 4° C. for 30 minutes and washed twice with phosphate-buffered saline, and added with 50 mM monosodium phosphate (NaH2PO4), 300 mM sodium chloride, 10 mM imidazole, 0.1 mM protease inhibitor (phenylmethylsulfonyl fluoride), and 400 U lysozyme, and then the cell solution was lysed with a sonicator. The cell lysate was centrifuged at 13,000×g at 4° C. for 10 minutes, and then the pellet was removed to separate only a cell supernatant. The cell supernatant was flowed onto a resin packed with an Ni-NTA agarose resin (Qiagen). The protein bound to the resin was washed with a wash buffer (50 mM NaH2PO4, 300 mM NaCl, 20/30 mM imidazole), eluted with an elution buffer (50 mM NaH2PO4, 300 mM NaCl, 250 mM imidazole) to purify Enhygromyxa lipoxygenase. Thereafter, a sample containing the purified Enhygromyxa lipoxygenase was prepared by obtaining a concentrated protein solution using 30 kDa Amicon.
Then, the enzymatic activity of the enzyme sample was measured using a UV-vis spectrophotometer (234 nm). More specifically, as the linoleic acid dioxygenation reaction progressed, the rate of increase in absorbance of a product, conjugated diene, was measured using the spectrophotometer, and the reaction time was measured for each of 10 seconds up to 180 seconds.

[2] = substrate: CCCCC/C=C\C/C=C\C/C=C\C/C=C\CCCC(=O)O; experiment: cells, lysate or membranes named; conditions: other: substrate of purified EsLOX, 234 nm, 50 mM EPPS (pH 8.5) buffer

Q: Which Km ([1]; read-out: KM) does the source give for `CCCCC/C=C\C/C=C\CCCCCCCC(=O)O` [Linoleic acid, linoleic acid] here?
A: The Km was 90 µM.

Q: `CC/C=C\C/C=C\C/C=C\CCCCCCCC(=O)O` [α-Linolenic acid, α-linolenic acid] was tested. Which Km ([1]; read-out: KM) did it give?
A: The Km was 120 µM.

Q: For `CCCCC/C=C\C/C=C\C/C=C\CCCCC(=O)O` [γ-Linolenic acid, γ-linolenic acid], which Km [1] is on record?
A: The Km was 130 µM.

B1: Enhygromyxa salina-derived lipoxygenase (EsLOX) (Enhygromyxa salina) (protein)
chain: MSNIPTLPQNDPRPEQRAQQLDKARETYKYADLLPPLAFCEGVPKPDTPSAAWLVTVGKVAAAVALNAVANRRAWKRGDHDEEDASFDVGGTSEEDQNEAGHNSFLARLENFDEEAVSFAPGDEPSVLDEVNERVAAILGAKPNRHVPPAQADDDDNGDDGDGDESFGVLDGNVSKDGPNGRPQSMDDYANLFRRITLPPIASTWKNDSAFAAYRVAGPNASMIQRITELPDNFAVTDAHYKQAMGEGDSLDAAKAEGRLFLADWKLIGETLVNNTYKGAQKTVYAPLALFAVPPGGGSLAPVAIQPGQTPSPTNKIYATQDGNDWLAAKSAVQVAEGNYHELVSHLGLTHLLLEPIVMATYRQLAQHHPIYMLLIPHFEGTLSINNSAATNLIAPGGAVDLIFAGTIESEHQLALAALKRHDFMRSGLPDTIEQRGVGDTSVLTDYPYRDDGLKIWANIERWVTAYVNNYYISEANVTQDTELQAWAAVLSKPFAEGGVSGFGPIDTRAALIFACTKVIFTASAEHSAVNFPQKDLMSYAPAITGAGWTAAPPSQGPLKDFQPPLELAELQAEFLYLLGGVHHTKLGFYNSNSFPYRAWFKDPKITAELLPAFQRDLAASEELIVAANATRTFKYTYMIPSTIPMSINI
Q: Which results are given for B1?
A: Km [2]: 80 µM; kcat/Km [2]: 290000 M⁻¹ s⁻¹
